Our source for the maximum solubility achievable, lower solubility value and solubility values is patent US20080200724A1, “Process and Compound” (NPIL Pharmaceuticals (UK) Ltd, priority 2005, published 2008).

Molecules are shown by their SMILES.

For data set [1] the following is noted: solvent mixtures comprising methanol and one or more of toluene or ethyl acetate, typically. Here is the method:
The upper and lower concentration values are therefore dependent on the solubility characteristics of the material and the solvent mixture of choice. […] Therefore, for a crystallisation regime starting at 60° C. and ending at 0° C., a saturated or partially saturated solution in methanol and toluene, ethyl acetate admixtures, the concentration of BOC-protected 2R,3S—N-isobutyl-N-(2-hydroxy-3-amino-4-phenylbutyl)-p-nitrobenzene-sulfonylamide is in the range from 0.3 to 24% w/w.

For data set [2] the following is noted: in propan-1-ol at 60° C. The source says: In addition to methanol, other lower aliphatic alcohols were investigated. The solubility of BOC-protected 2R,3S—N-isobutyl-N-(2-hydroxy-3-amino-4-phenylbutyl)-p-nitrobenzene-sulfonylamide in propan-1-ol, propan-2-ol or butan-1-ol is too low to offer an economically viable process. […] The solubility of BOC-protected 2R,3S—N-isobutyl-N-(2-hydroxy-3-amino-4-phenylbutyl)-p-nitrobenzene-sulfonylamide in ethanol is better than that in C3 and C4-alcohols, but is still lower than the solubility in methanol. […] Similarly, acetone and 2-pentanone yield small acicular crystals.

With `CC(C)CN(C[C@@H](O)[C@H](Cc1ccccc1)NC(=O)OC(C)(C)C)S(=O)(=O)c1ccc([N+](=O)[O-])cc1` [BOC-protected 2R,3S—N-isobutyl-N-(2-hydroxy-3-amino-4-phenylbutyl)-p-nitrobenzene-sulfonylamide], in data set [1] (60° C.), the maximum solubility achievable stood at 24 % w/w. For the same molecule, the lower solubility value in data set [1] (end-point temperature of 0° C.) is listed as 0.3 % w/w. Further, the solubility entry in data set [2] was “less than 3 % w/w”.
